# Laboratory results taken from US8163909B2, “Substituted hydroxyethyl amine compounds as beta-secretase modulators and methods of use” (Amgen Inc., priority 2007, dated 2012).
# Like-named read-outs stand apart in the source and are kept apart here.
# How the values were obtained:
# [1] = molecular target: Beta Secretase enzyme (BACE) (Homo sapiens, UniProt P56817); test: In vitro enzymatic BACE FRET (fluorescence resonance energy transfer) assay; assay type: biochemical;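 further: fluorescence read after 1 h with 50 nM quenched peptide substrate spanning the BACE cleavage site, in pH 4.2 acetate buffer containing 10% DMSO and nonionic detergent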
# Sequence of Beta Secretase enzyme (BACE) (P56817 46-501): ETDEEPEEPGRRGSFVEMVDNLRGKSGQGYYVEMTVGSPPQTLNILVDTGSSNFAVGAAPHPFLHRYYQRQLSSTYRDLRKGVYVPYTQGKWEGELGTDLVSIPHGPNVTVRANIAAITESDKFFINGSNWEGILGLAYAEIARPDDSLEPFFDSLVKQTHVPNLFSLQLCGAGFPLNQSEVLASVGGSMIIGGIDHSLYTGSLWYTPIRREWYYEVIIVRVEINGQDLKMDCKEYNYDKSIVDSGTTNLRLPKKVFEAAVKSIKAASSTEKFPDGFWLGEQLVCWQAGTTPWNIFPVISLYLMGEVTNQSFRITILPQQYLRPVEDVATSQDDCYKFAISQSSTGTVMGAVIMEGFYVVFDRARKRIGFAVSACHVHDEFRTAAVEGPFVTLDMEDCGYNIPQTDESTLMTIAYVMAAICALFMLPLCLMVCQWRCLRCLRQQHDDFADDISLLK
# CYP3A4 (CYP3A) = CYP3A4 (CYP3A) (Homo sapiens, UniProt P08684); test: in vitro; details: microsomes, pH 7.4;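 further: inhibition of CYP3A-mediated 1-hydroxymidazolam formation after 10 min incubation with NADPH, quantified by HPLC MS relative to metabolite produced without test compound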
# Sequence of CYP3A4 (CYP3A) (P08684 2-503): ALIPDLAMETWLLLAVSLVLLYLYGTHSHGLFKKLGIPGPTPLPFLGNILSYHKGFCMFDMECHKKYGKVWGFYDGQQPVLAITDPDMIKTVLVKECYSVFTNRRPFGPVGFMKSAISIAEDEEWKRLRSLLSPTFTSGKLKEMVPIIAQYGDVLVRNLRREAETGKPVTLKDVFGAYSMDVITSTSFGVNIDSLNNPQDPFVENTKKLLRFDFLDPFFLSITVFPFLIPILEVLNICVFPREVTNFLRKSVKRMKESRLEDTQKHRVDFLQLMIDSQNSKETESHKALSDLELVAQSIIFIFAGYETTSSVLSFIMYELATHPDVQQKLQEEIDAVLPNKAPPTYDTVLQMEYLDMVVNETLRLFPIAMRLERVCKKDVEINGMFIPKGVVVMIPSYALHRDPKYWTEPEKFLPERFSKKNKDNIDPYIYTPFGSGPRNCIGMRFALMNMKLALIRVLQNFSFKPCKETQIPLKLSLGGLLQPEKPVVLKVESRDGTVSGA
# Abeta peptide = test: In vivo inhibition of beta-secretase (reduction of Abeta peptide in brain and cerebrospinal fluid); design: species or system rat; details: Rattus norvegicus, po, 4 h;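 further: abeta peptide quantified by sandwich ELISA with electrochemiluminescence readout in rat brain supernatant or CSF, relative to vehicle-dosed control animals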
# [2] = Microsomal stability assay, human liver microsomes;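 further: pooled human liver microsomes at 0.25 mg/mL with 1 µM compound and NADPH at 37 °C, pH 7.4, for 30 min, unchanged parent quantified by LC-MS/MS against the 0 min sample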
# [3] = system: Aβ40 in conditioned medium of cells stably expressing Amyloid Precursor Protein (APP); test: In vitro BACE cell-based assay (Aβ40 in conditioned medium, sandwich ELISA); details: Homo sapiens;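 further: compounds added as a dilution series, secreted peptide quantified by europium time-resolved fluorescence readout, potency fitted from percent of control versus compound concentration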
# CYP2D6 = CYP2D6 (Homo sapiens, UniProt P10635); test: CYP2D6 inhibition assay (bufuralol, pooled human liver microsomes)
# Sequence of CYP2D6 (P10635 whole entry): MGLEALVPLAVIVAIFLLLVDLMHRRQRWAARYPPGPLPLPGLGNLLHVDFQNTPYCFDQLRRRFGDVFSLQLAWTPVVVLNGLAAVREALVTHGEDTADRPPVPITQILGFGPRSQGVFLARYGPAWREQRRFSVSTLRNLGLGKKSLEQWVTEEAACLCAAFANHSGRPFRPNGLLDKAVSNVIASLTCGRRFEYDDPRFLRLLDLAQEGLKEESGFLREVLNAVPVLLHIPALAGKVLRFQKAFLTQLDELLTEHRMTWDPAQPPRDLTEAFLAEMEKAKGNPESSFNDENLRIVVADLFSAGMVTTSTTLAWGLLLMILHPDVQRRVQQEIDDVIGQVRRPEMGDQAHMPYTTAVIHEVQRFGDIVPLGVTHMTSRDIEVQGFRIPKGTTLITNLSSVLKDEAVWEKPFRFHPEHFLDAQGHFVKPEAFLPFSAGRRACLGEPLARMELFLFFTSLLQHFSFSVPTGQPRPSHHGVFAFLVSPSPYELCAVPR
# [4] = Microsomal stability assay, rat liver microsomes;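 further: rat liver microsomes (0.25 mg/mL) with about 1 µM compound plus 1 mM NADPH, pH 7.4, 37 °C for 30 min, parent left measured by LC-MS/MS against 0 min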
# [5] = read-out: BACE1 FRET assay (IC50)
# [6] = rat cerebrospinal fluid, orally administered at 30 mg/kg dose, measured after 4 hours, read-out: percent reduction of abeta peptide in the cerebrospinal fluid of the rat
# [7] = HEK293, HEK cells, read-out: HEK cell assay (IC50)
# [8] = 2D6 IC50, CYP enzyme inhibition
# [9] = rat brain, orally administered at 30 mg/kg dose, measured after 4 hours, read-out: percent reduction of abeta peptide in the brain of the rat
# [10] = BACE enzyme assay, IC50's in uM, read-out: BACE1 FRET assay
# [11] = HEK293, HEK cell-based assay, IC50's in uM, read-out: HEK cell assay
# [12] = 2D6 IC50 (uM), CYP enzyme inhibition
# [13] = HEK293, cell-based assay, HEK cells, IC50's in uM, read-out: HEK cell assay
IC50 (CYP2D6; [8]) [µM],"IC50 [1, 10] [µM]",HLM ([2]; human liver microsomal data) [µL/min/mg],RLM ([4]; rat liver microsomal data) [µL/min/mg],"IC50 [3, 13] [µM]",SMILES,IC50 (CYP3A4 (CYP3A)) [nM],inhibition in vivo at 30 mg/kg (Abeta peptide; [6]) [%],further results
–,0.006,48,109,–,C#Cc1cc(F)cc(C[C@H](NC(=O)[C@@H](C)OC)[C@H](O)CN[C@H]2CC3(CCC3)Oc3ncc(CC(C)C)cc32)c1 [Example 835],–,–,"inhibition in vivo at 30 mg/kg (Abeta peptide; [9]): 5 to 80%; IC50 [3, 11]: 0.026 µM; IC50 (CYP2D6; [12]): 2.1 µM"
2.1,0.008,28,64,0.018,C#Cc1cc(C[C@H](NC(=O)C(OC)OC)[C@H](O)CN[C@H]2CC3(CCC3)Oc3ncc(CC(C)(C)C)cc32)ccc1F [Example 861],–,≥ 50,–
–,0.005,53,49,–,C#Cc1cccc(C[C@H](NC(=O)COC)[C@H](O)CN[C@H]2CC3(CCC3)Oc3ncc(CC(C)C)cc32)c1 [Example 756],–,10 to 80,"IC50 [3, 11]: 0.009 µM; IC50 (CYP2D6; [12]): 1.4 µM"

# More lines, now with the values behind:
SMILES,IC50 (CYP2D6; [8]) [µM],"IC50 [1, 10] [µM]",HLM ([2]; human liver microsomal data) [µL/min/mg],RLM ([4]; rat liver microsomal data) [µL/min/mg],"IC50 [3, 13] [µM]",IC50 (CYP3A4 (CYP3A)) [nM],inhibition in vivo at 30 mg/kg (Abeta peptide; [6]) [%],further results
"CC(=O)N[C@@H](Cc1cccc(-c2nccs2)c1)[C@H](O)CN[C@H]1CC2(CCC2)Oc2ccc(CC(C)(C)C)cc21 [Example 641, N-((1S,2R)-3-(((4S)-6-(2,2-dimethylpropyl)-3,4-dihydrospiro[chromene-2,1′-cyclobutan]-4-yl)amino)-2-hydroxy-1-(3-(1,3-thiazol-2-yl)benzyl)propyl)acetamide]",–,–,–,–,–,700,10 to 80,"IC50 [1, 5]: 0.006 µM; HLM ([2]; human liver microsomes): 102 µL/min/mg; IC50 [3, 7]: 0.029 µM; IC50 (CYP2D6; 2D6 IC50, CYP2D6 inhibition): 0.3 µM; RLM ([4]; rat liver microsomes): 165 µL/min/mg"
COCC(=O)N[C@@H](Cc1cc(-c2nccs2)ccc1F)[C@H](O)CN[C@H]1CC2(CCC2)Oc2ncc(CC(C)(C)C)cc21 [Example 900],≥ 27,–,–,–,–,≥ 27000,10 to 80,–
CC(C)Cc1cnc2c(c1)[C@@H](NC[C@@H](O)[C@H](Cc1ccc3c(c1)OCO3)NC(=O)[C@@H](C)F)CC1(CCC1)O2 [Example 600],–,–,–,–,–,–,10 to 80,"IC50 [1, 5]: 0.03 µM; inhibition in vivo at 30 mg/kg (Abeta peptide; [9]): 5 to 80%; IC50 [3, 7]: 0.035 µM"
"COCC(=O)N[C@@H](Cc1ccc(F)c(-c2nccs2)c1)[C@H](O)CN[C@H]1CC2(CCC2)Oc2ncc(CC(C)(C)C)cc21 [Example 650, N-((1S,2R)-3-(((4′S)-6′-(2,2-dimethylpropyl)-3′,4′-dihydrospiro[cyclobutane-1,2′-pyrano[2,3-b]pyridin]-4′-yl)amino)-1-(4-fluoro-3-(1,3-thiazol-2-yl)benzyl)-2-hydroxypropyl)-2-methoxyacetamide]",–,–,–,–,–,–,–,inhibition in vivo at 30 mg/kg (Abeta peptide; [9]): 5 to 80%
CC(C)(C)Cc1cnc2c(c1)[C@@H](NC[C@@H](O)[C@H](Cc1cc(F)cc(-c3nccs3)c1)NC(=O)CF)CC1(CCC1)O2 [Example 878],–,0.004,72,65,0.022,200,–,inhibition in vivo at 30 mg/kg (Abeta peptide; read-out: percent reduction of abeta peptide in the brain of the rat): 5 to 80%
CC(C)C(=O)N[C@@H](Cc1cc(F)cc(-c2nccs2)c1)[C@H](O)CN[C@H]1CC2(CCC2)Oc2ncc(CC(C)(C)C)cc21 [Example 883],–,0.021,54,52,0.021,100,10 to 80,–
"C#Cc1cccc(C[C@H](NC(=O)COCC)[C@H](O)CN[C@H]2CC3(CCC3)Oc3ncc(CC(C)(C)C)cc32)c1 [Example 870, N-((1S,2R)-3-(((4′S)-6′-(2,2-dimethylpropyl)-3′,4′-dihydrospiro[cyclobutane-1,2′-pyrano[2,3-b]pyridin]-4′-yl)amino)-1-(3-ethynylbenzyl)-2-hydroxypropyl)-2-ethoxyacetamide]",1.6,0.004,–,–,0.011,–,≥ 50,–
C#Cc1cccc(C[C@H](NC(=O)CC)[C@H](O)CN[C@H]2CC3(CCC3)Oc3ncc(CC(C)(C)C)cc32)c1 [Example 873],0.8,0.003,35,29,0.007,–,≥ 50,–
CO[C@H](C)C(=O)N[C@@H](Cc1cccc(C#N)c1)[C@H](O)CN[C@H]1CC2(CCC2)Oc2c(-c3ccncc3)cc(CC(C)(C)C)cc21 [Example 638],–,–,–,–,–,–,10 to 80,"IC50 [1, 5]: 0.017 µM; HLM ([2]; human liver microsomes): 32 µL/min/mg; IC50 [3, 7]: 0.006 µM; IC50 (CYP2D6; 2D6 IC50, CYP2D6 inhibition): 3 µM; RLM ([4]; rat liver microsomes): 92 µL/min/mg"
